The source made the active and inactive calls. The rule behind the calls is not given here.
Key:
[1] = molecular target: Solute carrier family 2, facilitated glucose transporter member 1 (Homo sapiens, UniProt P11166); experiment: Cellular mechanistic assay: Inhibition of glucose uptake by Hela-MaTu cells
[2] = molecular target: Calcium/calmodulin-dependent protein kinase type 1D (Homo sapiens) (UniProt Q8IU85); details: Compound concentration 1000.0 nM
[3] = molecular target: Cyclin-dependent kinase 2 (Homo sapiens) (UniProt P24941); details: Compound concentration 1000.0 nM
[4] = molecular target: Dual specificity protein kinase CLK4 (Homo sapiens) (UniProt Q9HAZ1); details: Compound concentration 1000.0 nM
[5] = molecular target: Macrophage colony-stimulating factor 1 receptor (Homo sapiens) (UniProt P07333); details: Compound concentration 1000.0 nM
[6] = molecular target: Receptor tyrosine-protein kinase erbB-2 (Homo sapiens) (UniProt P04626); details: Compound concentration 1000.0 nM
[7] = test system: Mast/stem cell growth factor receptor Kit (Homo sapiens), P10721 [L576P]; details: Compound concentration 1000.0 nM
[8] = molecular target: Hepatocyte growth factor receptor (Homo sapiens) (UniProt P08581); details: Compound concentration 1000.0 nM
[9] = molecular target: Serine/threonine-protein kinase Nek4 (Homo sapiens) (UniProt P51957); details: Compound concentration 1000.0 nM
[10] = molecular target: cAMP-dependent protein kinase catalytic subunit alpha (Homo sapiens) (UniProt P17612); details: Compound concentration 1000.0 nM
[11] = molecular target: Membrane-associated tyrosine- and threonine-specific cdc2-inhibitory kinase (Homo sapiens) (UniProt Q99640); details: Compound concentration 1000.0 nM
[12] = molecular target: T1, Protein kinase C iota type (Homo sapiens) (UniProt P41743); details: Compound concentration 1000.0 nM
T1 sequence (whole entry): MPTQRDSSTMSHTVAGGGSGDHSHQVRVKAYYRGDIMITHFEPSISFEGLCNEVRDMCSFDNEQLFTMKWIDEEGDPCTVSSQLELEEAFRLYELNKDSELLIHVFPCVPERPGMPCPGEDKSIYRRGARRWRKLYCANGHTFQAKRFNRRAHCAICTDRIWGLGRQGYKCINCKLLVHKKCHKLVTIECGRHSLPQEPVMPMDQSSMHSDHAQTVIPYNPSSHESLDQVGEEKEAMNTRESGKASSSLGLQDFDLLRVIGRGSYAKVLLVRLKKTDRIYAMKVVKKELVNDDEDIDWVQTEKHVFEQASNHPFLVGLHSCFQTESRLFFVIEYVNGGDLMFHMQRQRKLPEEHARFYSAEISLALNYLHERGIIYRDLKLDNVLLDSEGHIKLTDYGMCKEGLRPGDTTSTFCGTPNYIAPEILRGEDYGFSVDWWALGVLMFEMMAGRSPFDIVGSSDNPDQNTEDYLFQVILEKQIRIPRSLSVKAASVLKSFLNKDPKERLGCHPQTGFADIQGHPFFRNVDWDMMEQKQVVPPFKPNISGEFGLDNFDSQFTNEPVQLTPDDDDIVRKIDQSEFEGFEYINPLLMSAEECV

[13] = molecular target: Proto-oncogene tyrosine-protein kinase Src (Homo sapiens) (UniProt P12931); details: Compound concentration 1000.0 nM
[14] = molecular target: T2, Serine/threonine-protein kinase TAO3 (Homo sapiens) (UniProt Q9H2K8); details: Compound concentration 1000.0 nM
T2 sequence (whole entry): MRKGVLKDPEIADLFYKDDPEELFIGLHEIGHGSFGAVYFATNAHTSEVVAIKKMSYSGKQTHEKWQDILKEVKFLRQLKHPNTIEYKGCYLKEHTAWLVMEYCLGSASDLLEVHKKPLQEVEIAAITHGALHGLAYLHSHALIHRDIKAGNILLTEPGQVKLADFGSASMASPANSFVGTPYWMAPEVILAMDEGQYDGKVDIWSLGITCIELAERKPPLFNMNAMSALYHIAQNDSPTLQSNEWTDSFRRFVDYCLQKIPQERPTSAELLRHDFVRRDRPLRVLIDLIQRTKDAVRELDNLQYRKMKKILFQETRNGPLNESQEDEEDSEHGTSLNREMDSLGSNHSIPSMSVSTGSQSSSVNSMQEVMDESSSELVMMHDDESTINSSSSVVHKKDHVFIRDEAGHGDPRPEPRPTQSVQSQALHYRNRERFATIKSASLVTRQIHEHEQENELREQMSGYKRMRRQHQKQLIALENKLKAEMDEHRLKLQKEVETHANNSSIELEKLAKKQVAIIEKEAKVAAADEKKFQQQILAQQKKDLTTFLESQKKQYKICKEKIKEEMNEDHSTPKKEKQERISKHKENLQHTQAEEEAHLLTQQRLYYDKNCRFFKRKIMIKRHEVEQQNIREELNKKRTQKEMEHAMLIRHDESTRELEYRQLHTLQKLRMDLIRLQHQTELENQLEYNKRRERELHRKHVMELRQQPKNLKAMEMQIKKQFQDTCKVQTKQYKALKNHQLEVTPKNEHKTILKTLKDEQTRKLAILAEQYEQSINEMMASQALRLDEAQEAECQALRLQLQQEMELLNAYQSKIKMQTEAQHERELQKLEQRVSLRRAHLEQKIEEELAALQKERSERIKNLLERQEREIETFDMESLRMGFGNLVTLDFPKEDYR

[15] = molecular target: Activated CDC42 kinase 1 (Homo sapiens) (UniProt Q07912); details: Compound concentration 1000.0 nM
[16] = molecular target: High affinity nerve growth factor receptor (Homo sapiens) (UniProt P04629); details: Compound concentration 1000.0 nM
[17] = molecular target: Serine/threonine-protein kinase WNK2 (Homo sapiens) (UniProt Q9Y3S1); details: Compound concentration 1000.0 nM
[18] = molecular target: 5-hydroxytryptamine receptor 3A (Homo sapiens) (UniProt P46098); details: Compound concentration 10.0 uM
[19] = molecular target: 5-hydroxytryptamine receptor 6 (Homo sapiens) (UniProt P50406); details: Compound concentration 10.0 uM
5-hydroxytryptamine receptor 6 (Homo sapiens), sequence (P50406 whole entry): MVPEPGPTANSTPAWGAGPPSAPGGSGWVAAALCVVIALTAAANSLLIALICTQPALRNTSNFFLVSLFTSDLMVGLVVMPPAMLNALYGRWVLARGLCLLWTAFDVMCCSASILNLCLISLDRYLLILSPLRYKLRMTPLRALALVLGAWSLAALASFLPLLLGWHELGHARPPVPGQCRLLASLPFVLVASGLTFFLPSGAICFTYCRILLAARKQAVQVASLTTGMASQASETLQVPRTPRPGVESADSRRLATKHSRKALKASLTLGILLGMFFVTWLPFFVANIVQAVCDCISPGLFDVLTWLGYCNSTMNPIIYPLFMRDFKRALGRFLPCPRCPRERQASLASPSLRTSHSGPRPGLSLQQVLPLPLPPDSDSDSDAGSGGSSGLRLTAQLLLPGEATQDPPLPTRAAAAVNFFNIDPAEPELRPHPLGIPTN

High affinity nerve growth factor receptor (Homo sapiens), sequence (P04629 33-796 limits assumed): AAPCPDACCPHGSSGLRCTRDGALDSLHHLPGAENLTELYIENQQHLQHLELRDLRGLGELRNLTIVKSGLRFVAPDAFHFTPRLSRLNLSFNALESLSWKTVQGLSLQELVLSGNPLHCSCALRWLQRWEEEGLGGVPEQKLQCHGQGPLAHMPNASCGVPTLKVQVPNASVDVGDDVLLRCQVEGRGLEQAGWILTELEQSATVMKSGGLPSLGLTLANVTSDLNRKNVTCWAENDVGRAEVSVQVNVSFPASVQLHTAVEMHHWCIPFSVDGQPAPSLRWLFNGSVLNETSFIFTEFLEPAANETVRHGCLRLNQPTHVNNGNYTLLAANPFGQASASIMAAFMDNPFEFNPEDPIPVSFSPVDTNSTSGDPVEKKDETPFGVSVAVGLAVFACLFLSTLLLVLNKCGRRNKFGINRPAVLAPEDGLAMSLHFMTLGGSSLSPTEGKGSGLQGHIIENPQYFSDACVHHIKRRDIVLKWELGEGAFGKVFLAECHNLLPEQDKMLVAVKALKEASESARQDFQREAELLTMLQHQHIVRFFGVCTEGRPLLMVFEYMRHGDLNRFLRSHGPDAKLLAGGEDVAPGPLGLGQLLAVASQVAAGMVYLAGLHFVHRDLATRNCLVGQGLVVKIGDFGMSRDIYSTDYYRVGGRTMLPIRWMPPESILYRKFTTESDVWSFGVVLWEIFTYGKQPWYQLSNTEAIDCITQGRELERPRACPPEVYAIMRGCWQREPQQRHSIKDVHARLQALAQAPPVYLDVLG
Calcium/calmodulin-dependent protein kinase type 1D (Homo sapiens), sequence (Q8IU85 whole entry, looked up): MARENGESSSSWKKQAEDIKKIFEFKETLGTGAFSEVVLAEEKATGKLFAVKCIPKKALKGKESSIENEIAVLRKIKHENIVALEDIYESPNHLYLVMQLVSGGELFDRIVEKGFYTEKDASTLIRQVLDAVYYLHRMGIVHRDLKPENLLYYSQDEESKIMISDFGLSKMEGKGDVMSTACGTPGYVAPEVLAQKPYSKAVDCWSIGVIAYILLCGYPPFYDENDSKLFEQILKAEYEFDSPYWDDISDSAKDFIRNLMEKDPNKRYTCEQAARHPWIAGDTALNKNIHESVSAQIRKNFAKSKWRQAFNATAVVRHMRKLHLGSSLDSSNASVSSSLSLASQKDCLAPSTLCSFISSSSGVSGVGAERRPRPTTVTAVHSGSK
Hepatocyte growth factor receptor (Homo sapiens), sequence (P08581 whole entry): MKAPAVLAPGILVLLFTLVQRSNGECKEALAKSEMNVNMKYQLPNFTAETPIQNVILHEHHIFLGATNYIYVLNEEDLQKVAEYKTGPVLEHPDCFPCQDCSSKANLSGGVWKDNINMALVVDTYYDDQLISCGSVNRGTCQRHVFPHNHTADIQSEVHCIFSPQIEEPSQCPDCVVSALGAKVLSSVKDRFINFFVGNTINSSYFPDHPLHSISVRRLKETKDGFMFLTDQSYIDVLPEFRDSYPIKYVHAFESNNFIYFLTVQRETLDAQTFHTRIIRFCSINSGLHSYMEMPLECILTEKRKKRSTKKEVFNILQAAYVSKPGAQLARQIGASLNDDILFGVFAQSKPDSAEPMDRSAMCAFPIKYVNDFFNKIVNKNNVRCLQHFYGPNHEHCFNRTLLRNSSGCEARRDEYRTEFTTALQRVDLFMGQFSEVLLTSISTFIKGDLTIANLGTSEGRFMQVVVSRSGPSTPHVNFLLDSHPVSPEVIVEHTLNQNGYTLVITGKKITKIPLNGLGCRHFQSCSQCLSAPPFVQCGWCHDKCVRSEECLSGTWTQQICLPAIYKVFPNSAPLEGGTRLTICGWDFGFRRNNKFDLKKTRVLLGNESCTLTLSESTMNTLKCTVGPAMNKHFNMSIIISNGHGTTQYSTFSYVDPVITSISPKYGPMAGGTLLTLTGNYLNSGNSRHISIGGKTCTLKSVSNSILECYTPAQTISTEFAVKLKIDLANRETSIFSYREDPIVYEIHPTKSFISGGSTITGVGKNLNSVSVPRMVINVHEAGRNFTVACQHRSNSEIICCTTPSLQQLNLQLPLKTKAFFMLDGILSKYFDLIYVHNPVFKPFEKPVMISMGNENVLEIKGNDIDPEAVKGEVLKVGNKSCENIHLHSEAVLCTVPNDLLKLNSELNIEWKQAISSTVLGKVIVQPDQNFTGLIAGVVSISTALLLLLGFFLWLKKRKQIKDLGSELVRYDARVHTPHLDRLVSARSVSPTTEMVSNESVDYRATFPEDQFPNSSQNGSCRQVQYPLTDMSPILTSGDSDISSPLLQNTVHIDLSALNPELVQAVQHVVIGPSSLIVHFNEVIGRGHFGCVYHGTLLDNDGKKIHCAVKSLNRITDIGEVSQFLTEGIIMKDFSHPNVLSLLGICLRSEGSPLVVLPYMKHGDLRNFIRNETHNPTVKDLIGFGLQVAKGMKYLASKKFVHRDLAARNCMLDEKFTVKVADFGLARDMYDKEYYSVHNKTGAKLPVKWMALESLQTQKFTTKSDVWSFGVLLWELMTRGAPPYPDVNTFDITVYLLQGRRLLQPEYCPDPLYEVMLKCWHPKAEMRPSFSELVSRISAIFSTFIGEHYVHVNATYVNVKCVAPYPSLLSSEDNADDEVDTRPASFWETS
Proto-oncogene tyrosine-protein kinase Src (Homo sapiens), sequence (P12931 2-536 limits assumed): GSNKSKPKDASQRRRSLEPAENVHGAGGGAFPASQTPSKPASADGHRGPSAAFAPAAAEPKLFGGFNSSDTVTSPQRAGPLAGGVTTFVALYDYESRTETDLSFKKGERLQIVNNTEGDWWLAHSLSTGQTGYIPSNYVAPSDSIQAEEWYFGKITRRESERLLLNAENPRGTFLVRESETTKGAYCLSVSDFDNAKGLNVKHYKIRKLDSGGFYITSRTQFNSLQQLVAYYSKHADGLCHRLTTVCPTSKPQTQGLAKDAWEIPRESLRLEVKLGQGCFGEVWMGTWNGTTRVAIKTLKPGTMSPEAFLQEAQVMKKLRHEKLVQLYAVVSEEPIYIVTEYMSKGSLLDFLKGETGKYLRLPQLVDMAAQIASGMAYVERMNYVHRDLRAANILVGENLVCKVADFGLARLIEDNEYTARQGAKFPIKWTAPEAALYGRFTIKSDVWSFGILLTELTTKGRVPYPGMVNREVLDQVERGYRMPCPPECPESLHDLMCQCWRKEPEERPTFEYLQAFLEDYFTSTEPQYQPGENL
Receptor tyrosine-protein kinase erbB-2 (Homo sapiens), sequence (P04626 whole entry): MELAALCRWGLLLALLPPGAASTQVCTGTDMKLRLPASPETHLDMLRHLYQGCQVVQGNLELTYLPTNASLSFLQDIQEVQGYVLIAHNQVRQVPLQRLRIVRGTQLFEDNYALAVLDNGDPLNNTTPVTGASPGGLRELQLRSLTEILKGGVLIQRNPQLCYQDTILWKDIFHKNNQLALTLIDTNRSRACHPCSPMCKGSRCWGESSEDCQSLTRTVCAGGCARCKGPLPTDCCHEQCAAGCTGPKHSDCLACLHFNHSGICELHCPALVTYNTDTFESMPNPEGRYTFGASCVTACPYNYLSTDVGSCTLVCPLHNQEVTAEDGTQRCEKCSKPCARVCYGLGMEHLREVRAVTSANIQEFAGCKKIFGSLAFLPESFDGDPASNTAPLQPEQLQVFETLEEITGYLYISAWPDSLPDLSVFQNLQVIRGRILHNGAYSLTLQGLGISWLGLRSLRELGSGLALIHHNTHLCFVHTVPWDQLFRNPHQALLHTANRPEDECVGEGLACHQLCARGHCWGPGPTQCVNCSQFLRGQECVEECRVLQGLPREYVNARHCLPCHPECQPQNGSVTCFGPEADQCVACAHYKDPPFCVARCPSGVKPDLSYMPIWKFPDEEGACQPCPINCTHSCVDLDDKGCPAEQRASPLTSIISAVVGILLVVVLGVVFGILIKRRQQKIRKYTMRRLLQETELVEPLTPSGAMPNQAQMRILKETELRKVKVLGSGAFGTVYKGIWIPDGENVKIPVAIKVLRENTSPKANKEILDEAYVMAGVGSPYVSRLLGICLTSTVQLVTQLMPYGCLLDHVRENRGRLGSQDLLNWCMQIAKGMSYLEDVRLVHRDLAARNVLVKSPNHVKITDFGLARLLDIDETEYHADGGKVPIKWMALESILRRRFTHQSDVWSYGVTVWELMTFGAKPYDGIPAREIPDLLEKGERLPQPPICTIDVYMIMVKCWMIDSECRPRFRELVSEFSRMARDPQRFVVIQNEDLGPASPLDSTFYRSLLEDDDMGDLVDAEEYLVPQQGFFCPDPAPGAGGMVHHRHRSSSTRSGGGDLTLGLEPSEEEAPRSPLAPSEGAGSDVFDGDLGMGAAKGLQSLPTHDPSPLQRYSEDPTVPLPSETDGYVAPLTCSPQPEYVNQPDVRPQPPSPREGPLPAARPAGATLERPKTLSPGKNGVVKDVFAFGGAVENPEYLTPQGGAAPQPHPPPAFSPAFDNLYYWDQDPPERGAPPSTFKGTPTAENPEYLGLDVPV

## Cc1nc(C2CCN(C(=O)c3ccc(OC(F)(F)F)cc3N)CC2)c2ncc(N3CCN(C)CC3)cc2n1 [BAY-693]
[1]
  IC50: 6.4 µM (not active)
[2]
  residual activity: 100%
[3]
  residual activity: 87%
[4]
  residual activity: 97%
[5]
  residual activity: 94%
[6]
  residual activity: 100%
[7]
  residual activity: 87%
[8]
  residual activity: 94%
[9]
  residual activity: 100%
[10]
  residual activity: 100%
[11]
  residual activity: 100%
[12]
  residual activity: 81%
[13]
  residual activity: 99%
[14]
  residual activity: 100%
[15]
  residual activity: 100%
[16]
  residual activity: 85%
[17]
  residual activity: 100%
[18]
  inhibition: 6.25%
[19]
  inhibition: -1.38%

## CN1CCN(c2cnc3c(C4CCN(C(=O)c5ccc(OC(F)(F)F)cc5N)CC4)ncnc3c2)CC1 [BAY-885]
[1]
  IC50: 0.035 µM (active)
[2]
  residual activity: 100%
[3]
  residual activity: 100%
[4]
  residual activity: 98%
[5]
  residual activity: 92%
[6]
  residual activity: 100%
[7]
  residual activity: 95%
[8]
  residual activity: 69%
[9]
  residual activity: 100%
[10]
  residual activity: 100%
[11]
  residual activity: 100%
[12]
  residual activity: 77%
[13]
  residual activity: 100%
[14]
  residual activity: 100%
[15]
  residual activity: 100%
[16]
  residual activity: 100%
[17]
  residual activity: 100%
[18]
  inhibition: 5.22%
[19]
  inhibition: -4.69%
